In patent US7754913B2, “Synthesis of isotopically labeled alpha-keto acids and esters” (Cambridge Isotope Laboratories, Inc., priority 2006, dated 2010):

Legend:
[1] = Shelf storage stability of [1-13C] pyruvic acid in water, 1H and 13C NMR spectra compared; assay type: physicochemical; details: 0.025M in water; for Storage stability, Duration 12 weeks / Storage stability, Duration 17 weeks: NMR; for Shelf stability (NMR spectra unchanged): each of the samples, all conditions of Table 1
Protocol: Samples of isotopically labeled [1-^13C] pyruvic acid, having Formula VI and synthesized as discussed immediately below, were subjected to various conditions as depicted in Table 1, in order to establish the compound's shelf storage stability.
The resulting [1-^13C] pyruvic acid was tested as follows in Table 1:
^1H and ^13C NMR spectra of the distilled [1-^13C] pyruvic acid in water (0.025M) were acquired at the onset of the study and prior to exposing the samples to the various conditions specified in Table 1. ^1H and ^13C NMR spectra were again acquired for each of the samples after being exposed to the aforementioned conditions on a weekly basis for 12-weeks. The spectra acquired after exposure were compared visually and appeared to remain unchanged as compared with the spectra acquired prior to exposure, i.e. the spectra were as expected for [1-^13C] pyruvic acid in water. As such, it was concluded that each of the samples were shelf stable. Similarly, ^1H and ^13C NMR spectra acquired after 17-weeks of exposure remained unchanged as compared with the spectra acquired prior to exposure.

[2] = Concentration studies: stability of pyruvic acid solutions in water at higher concentrations; assay type: physicochemical; details: each of the concentrations of Table 2; light for 6-weeks; about 22° C. to about 26° C.
Protocol: Each of these commercial solutions were subjected to light for 6-weeks at temperatures ranging from about 22° C. to about 26° C. At each of the concentrations listed below, it was discovered that the pyruvic acid solutions were stable.

[3] = cited from earlier work
[4] = Sample 3, Room temperature (about 22° C. to about 26° C.), Dark
[5] = Sample 4, Room temperature (about 22° C. to about 26° C.), Light

Storage stability, Duration 12 weeks ([1]; Sample 1, −10° C., Dark) | Storage stability, Duration 17 weeks ([1]; Sample 1, −10° C., Dark) | Storage stability, Duration 12 weeks ([1]; Sample 2, 4° C., Dark) | Storage stability, Duration 17 weeks ([1]; Sample 2, 4° C., Dark) | Storage stability, Duration 12 weeks [1, 4] | Storage stability, Duration 17 weeks [1, 4] | Storage stability, Duration 12 weeks [1, 5] | Storage stability, Duration 17 weeks [1, 5] | Shelf stability (NMR spectra unchanged) ([1]; after 17-weeks) | Shelf stability (NMR spectra unchanged) ([1]; weekly for 12-weeks) | Stability of solutions in water [2] | SMILES | Solubility in water [3]
Stable | Stable | Stable | Stable | Stable | Stable | Stable | Stable | shelf stable | shelf stable | – | CC(=O)[13C](=O)O [[1-^13C] pyruvic acid] | –
– | – | – | – | – | – | – | – | – | – | stable | CC(=O)C(=O)O [Pyruvic acid, 2-oxopropanoic acid, reference compound] | soluble
